Source: the supplement of paper PMC13207355

Tests used:
Conditions in all cases: exposure time: 72 h
[1] = tested on: FT3469 (normal neural stem cell line); experiment: phenotypic distance (Euclidean, principal components) from DMSO controls (arbitrary units); higher = stronger morphological change
[2] = tested on: E31 (patient-derived glioblastoma stem cells of proneural subtype); experiment: as above
[3] = tested on: E13 (patient-derived glioblastoma stem cells of classical subtype); experiment: as above
[4] = tested on: E34 (patient-derived glioblastoma stem cells of proneural subtype); experiment: as above
[5] = tested on: E21 (patient-derived glioblastoma stem cells of mesenchymal subtype); experiment: as above
[6] = tested on: E28 (patient-derived glioblastoma stem cells of classical subtype); experiment: as above
[7] = tested on: E57 (patient-derived glioblastoma stem cells of mesenchymal subtype); experiment: as above
[8] = tested on: FT3469; experiment: surviving fraction (nuclei count normalised to DMSO); higher = more cells surviving (less toxic)
[9] = tested on: E31; experiment: as above
[10] = tested on: E13; experiment: as above
[11] = tested on: E34; experiment: as above
[12] = tested on: E21; experiment: as above
[13] = tested on: E28; experiment: as above
[14] = tested on: E57; experiment: as above
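Throughout, for phenotypic distance (Euclidean, principal components) from DMSO controls: cell Painting imaging in 384-well plates, CellProfiler features reduced to at least 20 principal components, Euclidean distance versus same-plate DMSO vehicle wells (0.1% v/v), median over six images per well.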
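Throughout, for surviving fraction (nuclei count normalised to DMSO): nuclei counted by high-content imaging of Hoechst-stained cells in laminin-coated 384-well plates, relative to 0.1% DMSO vehicle wells, with staurosporine as cell-death control.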

C/C=C1\NC(=O)[C@H]2CSSCC/C=C/[C@H](CC(=O)N[C@H](C(C)C)C(=O)N2)OC(=O)[C@H](C(C)C)NC1=O [Romidepsin]
Conditions	phenotypic distance	surviving fraction
[1], 4.1 nM	3.71	–
[1], 12.3 nM	2.82	–
[1], 37 nM	3.47	–
[1], 111.1 nM	2.86	–
[1], 333.3 nM	3.77	–
[1], 1000 nM	5.6	–
[1], 3000 nM	8.06	–
[2], 4.1 nM	12.3	–
[2], 12.3 nM	10.3	–
[2], 37 nM	11	–
[2], 111.1 nM	8.91	–
[2], 333.3 nM	7.47	–
[2], 1000 nM	18.1	–
[2], 3000 nM	7.62	–
[3], 4.1 nM	4.99	–
[3], 12.3 nM	4.79	–
[3], 37 nM	4.79	–
[3], 111.1 nM	5.03	–
[3], 333.3 nM	4.51	–
[3], 1000 nM	6.31	–
[3], 3000 nM	8.31	–
[4], 4.1 nM	8.64	–
[4], 12.3 nM	7.96	–
[4], 37 nM	9.03	–
[4], 111.1 nM	8.78	–
[4], 333.3 nM	7.71	–
[4], 1000 nM	8.57	–
[4], 3000 nM	7.26	–
[5], 4.1 nM	6.02	–
[5], 12.3 nM	7.55	–
[5], 37 nM	7.46	–
[5], 111.1 nM	6.75	–
[5], 333.3 nM	7.68	–
[5], 1000 nM	9.06	–
[5], 3000 nM	20.2	–
[6], 4.1 nM	4.95	–
[6], 12.3 nM	5.55	–
[6], 37 nM	5.4	–
[6], 111.1 nM	4.65	–
[6], 333.3 nM	5.39	–
[6], 1000 nM	5.54	–
[6], 3000 nM	6.46	–
[7], 4.1 nM	8.58	–
[7], 12.3 nM	7.79	–
[7], 37 nM	9.5	–
[7], 111.1 nM	9.16	–
[7], 333.3 nM	8.37	–
[7], 1000 nM	9.9	–
[7], 3000 nM	11.1	–
[8], 4.1 nM	–	0.237
[8], 12.3 nM	–	0.267
[8], 37 nM	–	0.31
[8], 111.1 nM	–	0.274
[8], 333.3 nM	–	0.321
[8], 1000 nM	–	0.123
[8], 3000 nM	–	0.0672
[9], 4.1 nM	–	0.00149
[9], 12.3 nM	–	0.0134
[9], 37 nM	–	0.00446
[9], 111.1 nM	–	0.00892
[9], 333.3 nM	–	0.00594
[9], 1000 nM	–	0.00446
[9], 3000 nM	–	0.00892
[10], 4.1 nM	–	0.219
[10], 12.3 nM	–	0.212
[10], 37 nM	–	0.191
[10], 111.1 nM	–	0.211
[10], 333.3 nM	–	0.169
[10], 1000 nM	–	0.0814
[10], 3000 nM	–	0.00947
[11], 4.1 nM	–	0.302
[11], 12.3 nM	–	0.292
[11], 37 nM	–	0.271
[11], 111.1 nM	–	0.359
[11], 333.3 nM	–	0.286
[11], 1000 nM	–	0.245
[11], 3000 nM	–	0.1
[12], 4.1 nM	–	0.102
[12], 12.3 nM	–	0.0766
[12], 37 nM	–	0.0713
[12], 111.1 nM	–	0.0809
[12], 333.3 nM	–	0.049
[12], 1000 nM	–	0.00532
[12], 3000 nM	–	0
[13], 4.1 nM	–	0.157
[13], 12.3 nM	–	0.153
[13], 37 nM	–	0.138
[13], 111.1 nM	–	0.194
[13], 333.3 nM	–	0.17
[13], 1000 nM	–	0.17
[13], 3000 nM	–	0.0691
[14], 4.1 nM	–	0.062
[14], 12.3 nM	–	0.0535
[14], 37 nM	–	0.0389
[14], 111.1 nM	–	0.0558
[14], 333.3 nM	–	0.0428
[14], 1000 nM	–	0.0349
[14], 3000 nM	–	0.00732
